According to PubChem BioAssay (NCI):
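Grown in 96-well plates, cells were treated for 48 hours with each compound at five concentrations. Insufficient inhibition: endpoint recorded as highest concentration tested. TGI is the concentration that stops growth completely.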

How the values were obtained:
Assay in all cases: NCI tumour cell line growth inhibition, 48 h
[1] = test system: UACC-62 melanoma
[2] = test system: SNB-19 CNS
[3] = test system: SK-MEL-28 melanoma
[4] = test system: RXF 393 renal
[5] = test system: EKVX NSCLC
[6] = test system: OVCAR-5 ovarian
[7] = test system: NCI-H226 lung
[8] = test system: KM12 colon
[9] = test system: M14 melanoma
[10] = test system: RPMI-8226 leukemia
[11] = test system: LOX IMVI melanoma
[12] = test system: HCC-2998 colon
[13] = test system: NCI-H460 lung
[14] = test system: SF-539 CNS
[15] = test system: SK-OV-3 ovarian
[16] = test system: HS 578T breast
[17] = test system: HCT-116 colon
[18] = test system: MALME-3M melanoma
[19] = test system: HL-60(TB) leukemia
[20] = test system: IGROV1 ovarian
[21] = test system: MOLT-4 leukemia
[22] = test system: HOP-92 NSCLC
[23] = test system: CCRF-CEM leukemia
[24] = test system: NCI-H522 lung
[25] = test system: SF-268 CNS
[26] = test system: UACC-257 melanoma
[27] = test system: BT-549 breast
[28] = test system: NCI-H23 lung
[29] = test system: SF-295 CNS
[30] = test system: OVCAR-4 ovarian
[31] = test system: OVCAR-3 ovarian
[32] = test system: UO-31 renal
[33] = test system: T-47D breast
[34] = test system: SNB-75 CNS
[35] = test system: 786-0 renal
[36] = test system: SK-MEL-5 melanoma
[37] = test system: MDA-N
[38] = test system: A549 NSCLC
[39] = test system: SK-MEL-2 melanoma
[40] = test system: SW-620 colon
[41] = test system: MDA-MB-435
[42] = test system: OVCAR-8 ovarian
[43] = test system: A498 renal
[44] = test system: HT29 colon
[45] = test system: U251 CNS
[46] = test system: DU-145 prostate
[47] = test system: TK-10 renal
[48] = test system: HOP-62 NSCLC
[49] = test system: HCT-15 colon
[50] = test system: SN12C renal
[51] = test system: NCI/ADR-RES ovarian
[52] = test system: SR leukemia
[53] = test system: ACHN renal
[54] = test system: MCF7 breast
[55] = test system: K-562 leukemia
[56] = test system: MDA-MB-231 breast
[57] = test system: PC-3 prostate
[58] = test system: CAKI-1 renal
[59] = test system: COLO 205 colon

In the case of `COc1ccc(/C=C(/c2ccccc2)c2c(C)cc(C)c(/C(=C\c3ccc(OC)cc3)c3ccccc3)c2N=Nc2cc(C)cc(C)c2)cc1`, the TGI [1] is reported as greater than 100 µM, the TGI [2] is reported as greater than 100 µM and the TGI [3] is reported as greater than 100 µM. The TGI [4] was greater than 95.9 µM, the TGI [5] was greater than 100 µM and the TGI [6] was greater than 100 µM. The TGI [7] was greater than 100 µM, the TGI [8] was greater than 71.9 µM and the TGI [9] was greater than 100 µM. It also gave a TGI [10] greater than 100 µM, a TGI [11] greater than 100 µM and a TGI [12] greater than 25.8 µM. It also gave a TGI [13] greater than 75.2 µM, a TGI [14] greater than 100 µM and a TGI [15] greater than 100 µM. For the same compound, the TGI [16] was greater than 100 µM, the TGI [17] was greater than 87.8 µM and the TGI [18] was 56.6 µM. For the same compound, the TGI [19] was greater than 42.4 µM, the TGI [20] was greater than 100 µM and the TGI [21] was greater than 100 µM. It also gave a TGI [22] greater than 100 µM, a TGI [23] greater than 100 µM and a TGI [24] greater than 64.1 µM. For the same compound, the TGI [25] was greater than 100 µM, the TGI [26] was 18.8 µM and the TGI [27] was greater than 100 µM. For the same compound, the TGI [28] was greater than 83.8 µM, the TGI [29] was greater than 100 µM and the TGI [30] was greater than 100 µM. For the same compound, the TGI [31] was 30.2 µM, the TGI [32] was greater than 100 µM and the TGI [33] was greater than 100 µM. The TGI [34] was 34.2 µM, the TGI [35] was greater than 100 µM and the TGI [36] was 37.6 µM. It also gave a TGI [37] greater than 100 µM, a TGI [38] greater than 100 µM and a TGI [39] of 21.8 µM. It also gave a TGI [40] greater than 100 µM, a TGI [41] greater than 62.2 µM and a TGI [42] greater than 100 µM. For the same compound, the TGI [43] was greater than 100 µM, the TGI [44] was greater than 100 µM and the TGI [45] was greater than 100 µM. The TGI [46] was greater than 100 µM, the TGI [47] was greater than 74.4 µM and the TGI [48] was greater than 100 µM. For the same compound, the TGI [49] was greater than 100 µM, the TGI [50] was 23.4 µM and the TGI [51] was greater than 100 µM. For the same compound, the TGI [52] was greater than 100 µM, the TGI [53] was greater than 100 µM and the TGI [54] was greater than 100 µM. For the same compound, the TGI [55] was greater than 100 µM, the TGI [56] was 16 µM and the TGI [57] was greater than 100 µM. For the same compound, the TGI [58] was greater than 100 µM and the TGI [59] was 24.3 µM.
With `O=S(=O)(/N=C(\NO)Nc1ccc(Cl)cc1)C1CC=C(c2ccon2)S1` (stereo unspecified) the TGI [1] was greater than 100 µM, the TGI [2] was greater than 100 µM and the TGI [3] was greater than 100 µM. For the same compound, the TGI [4] was 87.3 µM, the TGI [5] was greater than 100 µM and the TGI [6] was greater than 100 µM. The TGI [7] was greater than 79.8 µM, the TGI [8] was greater than 100 µM and the TGI [9] was greater than 100 µM. For the same compound, the TGI [10] was greater than 50.3 µM, the TGI [11] was greater than 100 µM and the TGI [12] was 50.4 µM. It also gave a TGI [13] greater than 65.8 µM, a TGI [14] of 16.9 µM and a TGI [15] greater than 100 µM. For the same compound, the TGI [16] was greater than 66.3 µM, the TGI [17] was greater than 100 µM and the TGI [18] was 43.2 µM. It also gave a TGI [19] of 35.6 µM, a TGI [20] greater than 72.3 µM and a TGI [21] greater than 51.3 µM. For the same compound, the TGI [22] was greater than 85.5 µM, the TGI [23] was 72.1 µM and the TGI [24] was 12.8 µM. The TGI [25] was greater than 84.4 µM, the TGI [26] was greater than 100 µM and the TGI [27] was greater than 63 µM. It also gave a TGI [28] greater than 100 µM, a TGI [29] greater than 100 µM and a TGI [30] greater than 100 µM. The TGI [31] was greater than 100 µM, the TGI [32] was 81.6 µM and the TGI [33] was greater than 100 µM. It also gave a TGI [35] greater than 100 µM, a TGI [36] greater than 62.1 µM and a TGI [37] greater than 100 µM. It also gave a TGI [38] greater than 100 µM, a TGI [39] of 55.1 µM and a TGI [40] greater than 100 µM. The TGI [41] was greater than 100 µM, the TGI [42] was greater than 100 µM and the TGI [43] was greater than 75.9 µM. The TGI [44] was greater than 100 µM, the TGI [45] was greater than 100 µM and the TGI [46] was greater than 100 µM. For the same compound, the TGI [47] was greater than 100 µM, the TGI [48] was greater than 100 µM and the TGI [49] was greater than 100 µM. It also gave a TGI [50] of 98.9 µM, a TGI [51] greater than 100 µM and a TGI [52] of 19.8 µM. It also gave a TGI [53] greater than 100 µM, a TGI [54] greater than 100 µM and a TGI [55] greater than 100 µM. For the same compound, the TGI [56] was greater than 100 µM, the TGI [57] was greater than 100 µM and the TGI [58] was greater than 100 µM. The TGI [59] was 35 µM.
Compound `CSc1ccc2c(cc1=O)[C@@H](NC(=O)c1ccc([N+](=O)[O-])cc1)CCc1cc(O)c(O)c(O)c1-2` has a TGI [1] greater than 100 µM, a TGI [2] greater than 100 µM and a TGI [3] greater than 100 µM. The TGI [4] was greater than 100 µM, the TGI [5] was greater than 100 µM and the TGI [6] was greater than 100 µM. It also gave a TGI [7] greater than 100 µM, a TGI [8] of 37.4 µM and a TGI [9] greater than 100 µM. For the same compound, the TGI [10] was greater than 100 µM, the TGI [11] was greater than 100 µM and the TGI [12] was greater than 100 µM. It also gave a TGI [13] greater than 100 µM, a TGI [14] greater than 100 µM and a TGI [15] greater than 100 µM. It also gave a TGI [16] of 62 µM, a TGI [17] greater than 100 µM and a TGI [18] greater than 100 µM. For the same compound, the TGI [19] was 57.5 µM, the TGI [20] was greater than 100 µM and the TGI [21] was greater than 100 µM. For the same compound, the TGI [22] was greater than 100 µM, the TGI [23] was greater than 100 µM and the TGI [24] was greater than 100 µM. For the same compound, the TGI [25] was greater than 100 µM, the TGI [26] was greater than 100 µM and the TGI [27] was greater than 100 µM. The TGI [28] was greater than 100 µM, the TGI [29] was greater than 100 µM and the TGI [30] was greater than 100 µM. It also gave a TGI [31] of 31.1 µM, a TGI [32] greater than 100 µM and a TGI [33] greater than 100 µM. The TGI [34] was greater than 100 µM, the TGI [35] was 84.1 µM and the TGI [36] was 53.1 µM. It also gave a TGI [37] of 67.4 µM, a TGI [38] of 77.7 µM and a TGI [39] greater than 100 µM. For the same compound, the TGI [40] was greater than 100 µM, the TGI [41] was greater than 100 µM and the TGI [42] was greater than 100 µM. For the same compound, the TGI [43] was greater than 100 µM, the TGI [44] was 40.8 µM and the TGI [45] was greater than 100 µM. It also gave a TGI [46] greater than 100 µM, a TGI [47] greater than 100 µM and a TGI [48] of 33.4 µM. The TGI [49] was 85.1 µM, the TGI [50] was 62.5 µM and the TGI [51] was 53.6 µM. For the same compound, the TGI [52] was greater than 100 µM, the TGI [53] was greater than 100 µM and the TGI [54] was greater than 100 µM. It also gave a TGI [55] greater than 100 µM, a TGI [56] of 81.2 µM and a TGI [57] greater than 100 µM. For the same compound, the TGI [58] was 42.6 µM and the TGI [59] was 53.7 µM.
